Test results: PMC9386255, “Specialized acyl carrier protein used by serine palmitoyltransferase to synthesize sphingolipids in Rhodobacteria” (Frontiers in Microbiology, 2022)

Columns and labels:
Format in all cases: biochemical
[1] = target: T1, FadDSm, acyl-CoA synthetase FadD from S. meliloti 1021 (Sinorhizobium meliloti, UniProt Q7APF7); test: [3H]palmitoyl-CoA formation, heptane extraction, scintillation counting; details: 10 mM ATP, 10 mM MgSO4, 1 mM Triton X-100, pH 8.0, 37 C, 40 uM CoA
T1 construct: full length, His6-tagged (pET28a, pECH3), E. coli BL21(DE3) pLysS host, IMAC-purified, tag kept
T1 sequence (Q7APF7 entry or part of it): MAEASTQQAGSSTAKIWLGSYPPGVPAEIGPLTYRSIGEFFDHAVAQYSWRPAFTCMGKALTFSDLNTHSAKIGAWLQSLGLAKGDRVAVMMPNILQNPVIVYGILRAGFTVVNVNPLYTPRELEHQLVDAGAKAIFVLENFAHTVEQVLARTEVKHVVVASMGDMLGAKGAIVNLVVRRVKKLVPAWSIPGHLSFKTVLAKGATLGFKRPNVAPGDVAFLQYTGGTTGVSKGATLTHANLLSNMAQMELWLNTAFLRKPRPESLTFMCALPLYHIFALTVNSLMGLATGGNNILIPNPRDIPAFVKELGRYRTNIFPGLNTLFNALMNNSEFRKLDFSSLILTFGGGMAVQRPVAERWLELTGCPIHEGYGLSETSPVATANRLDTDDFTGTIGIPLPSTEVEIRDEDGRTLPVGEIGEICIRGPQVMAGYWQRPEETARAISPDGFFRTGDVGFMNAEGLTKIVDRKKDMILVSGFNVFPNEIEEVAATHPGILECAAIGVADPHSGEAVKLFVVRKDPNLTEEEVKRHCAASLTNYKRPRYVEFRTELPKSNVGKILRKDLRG

[2] = target: T2, SPTSw (Swit_3900), serine palmitoyltransferase (Rhizorhabdus wittichii, UniProt A0A9J9HEF8); test: L-[…]serine incorporation into 3-oxo-sphinganine, TLC autoradiography, empty-vector control; details: 10 uM palmitoyl-CoA, 432 uM L-[14C]serine, 10 uM pyridoxal phosphate, pH 7.5, 30 C; minor product
T2 construct: full length, expressed from pET9a (pJPG02) in E. coli BL21(DE3) pLysS, cell-free extract
T2 sequence (A0A9J9HEF8 1-400): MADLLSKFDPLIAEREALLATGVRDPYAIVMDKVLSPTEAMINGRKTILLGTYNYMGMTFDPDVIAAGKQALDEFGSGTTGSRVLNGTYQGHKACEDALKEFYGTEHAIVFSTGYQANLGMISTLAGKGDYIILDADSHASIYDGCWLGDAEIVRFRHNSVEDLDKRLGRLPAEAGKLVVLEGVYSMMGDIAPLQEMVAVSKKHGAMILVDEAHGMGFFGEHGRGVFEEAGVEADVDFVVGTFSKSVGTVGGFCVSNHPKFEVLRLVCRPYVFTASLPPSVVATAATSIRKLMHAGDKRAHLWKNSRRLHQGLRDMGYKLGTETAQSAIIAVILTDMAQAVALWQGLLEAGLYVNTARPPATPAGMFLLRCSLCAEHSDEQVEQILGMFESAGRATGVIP

[3] = target: T3, SPTCc (CC_1162), serine palmitoyltransferase (Caulobacter vibrioides, UniProt Q9A932); test: as above; details: 10 uM palmitoyl-CoA, 432 uM L-[14C]serine, 10 uM pyridoxal phosphate, pH 7.5, 30 C; minor product
T3 construct: full length, expressed from pET9a (pJPG08) in E. coli BL21(DE3) pLysS, cell-free extract
T3 sequence (Q9A932 1-404): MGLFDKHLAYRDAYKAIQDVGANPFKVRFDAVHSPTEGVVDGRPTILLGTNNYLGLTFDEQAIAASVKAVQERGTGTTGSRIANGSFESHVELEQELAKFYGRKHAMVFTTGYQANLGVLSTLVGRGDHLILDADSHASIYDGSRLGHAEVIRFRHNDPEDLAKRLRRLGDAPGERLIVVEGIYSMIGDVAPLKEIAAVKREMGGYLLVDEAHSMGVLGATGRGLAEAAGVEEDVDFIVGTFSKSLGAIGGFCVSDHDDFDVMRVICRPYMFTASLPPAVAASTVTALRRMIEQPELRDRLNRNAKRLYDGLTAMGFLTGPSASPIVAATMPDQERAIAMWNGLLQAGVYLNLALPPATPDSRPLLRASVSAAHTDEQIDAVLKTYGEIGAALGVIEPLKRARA

[4] = target: T4, SPTEc (ECD_02854), serine palmitoyltransferase (Escherichia coli, UniProt B1LEF2); test: as above; details: 10 uM palmitoyl-CoA, 432 uM L-[14C]serine, 10 uM pyridoxal phosphate, pH 7.5, 30 C; minor product
T4 construct: gene EcSMS35_3263; full length, expressed from pET9a (pJPG01) in E. coli BL21(DE3) pLysS, cell-free extract
T4 sequence (B1LEF2 1-390): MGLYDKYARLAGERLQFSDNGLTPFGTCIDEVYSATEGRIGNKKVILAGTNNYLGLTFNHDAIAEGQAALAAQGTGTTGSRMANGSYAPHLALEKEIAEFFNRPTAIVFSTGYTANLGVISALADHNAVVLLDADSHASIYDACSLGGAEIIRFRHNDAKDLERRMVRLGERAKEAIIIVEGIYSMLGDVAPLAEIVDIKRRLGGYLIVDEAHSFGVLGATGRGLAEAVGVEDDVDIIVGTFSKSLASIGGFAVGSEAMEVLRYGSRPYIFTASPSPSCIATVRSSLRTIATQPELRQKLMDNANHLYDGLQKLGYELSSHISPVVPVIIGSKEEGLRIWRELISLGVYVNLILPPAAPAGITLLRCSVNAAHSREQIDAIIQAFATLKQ

Structure (SMILES): CC(C)(COP(=O)(O)OP(=O)(O)OC[C@H]1O[C@@H](n2cnc3c(N)ncnc32)[C@H](O)[C@@H]1OP(=O)(O)O)[C@@H](O)C(=O)NCCC(=O)NCCS [CoA]
- [3H]palmitoyl-CoA formation, heptane extraction, scintillation counting ([1]; 200 uM [3H]palmitate): acyl-CoA synthetase FadD is able to form acyl-CoA

Structure (SMILES): CCCCCCCCCCCCCCCC(=O)O [palmitate]
- [3H]palmitoyl-CoA formation, heptane extraction, scintillation counting ([1]; 200 uM palmitate, labelled compound): Using FadDSm in the acylation assay resulted in an increase in the amount of acyl-CoA

Structure (SMILES): CCCCCCCCCCCCCCCC(=O)SCCNC(=O)CCNC(=O)[C@H](O)C(C)(C)COP(=O)(O)OP(=O)(O)OC[C@H]1O[C@@H](n2cnc3c(N)ncnc32)[C@H](O)[C@@H]1OP(=O)(O)O [palmitoyl-CoA]
- L-[14C]serine incorporation into 3-oxo-sphinganine, TLC autoradiography, empty-v [2]: using the SPTs from C. crescentus, E. coli BL21(DE3) or S. wittichii, and palmitoyl-CoA as thioester
- L-[14C]serine incorporation into 3-oxo-sphinganine, TLC autoradiography, empty-v [3]: using the SPTs from C. crescentus, E. coli BL21(DE3) or S. wittichii, and palmitoyl-CoA as thioester
- L-[14C]serine incorporation into 3-oxo-sphinganine, TLC autoradiography, empty-v [4]: using the SPTs from C. crescentus, E. coli BL21(DE3) or S. wittichii, and palmitoyl-CoA as thioester
